Legend:
CaV2.2 [1] = target: T1, CaV2.2 (Homo sapiens, UniProt Q00975); assay: cell-based
CaV2.2 [2] = target: T1, CaV2.2

T1 sequence (Q00975 whole entry, looked up): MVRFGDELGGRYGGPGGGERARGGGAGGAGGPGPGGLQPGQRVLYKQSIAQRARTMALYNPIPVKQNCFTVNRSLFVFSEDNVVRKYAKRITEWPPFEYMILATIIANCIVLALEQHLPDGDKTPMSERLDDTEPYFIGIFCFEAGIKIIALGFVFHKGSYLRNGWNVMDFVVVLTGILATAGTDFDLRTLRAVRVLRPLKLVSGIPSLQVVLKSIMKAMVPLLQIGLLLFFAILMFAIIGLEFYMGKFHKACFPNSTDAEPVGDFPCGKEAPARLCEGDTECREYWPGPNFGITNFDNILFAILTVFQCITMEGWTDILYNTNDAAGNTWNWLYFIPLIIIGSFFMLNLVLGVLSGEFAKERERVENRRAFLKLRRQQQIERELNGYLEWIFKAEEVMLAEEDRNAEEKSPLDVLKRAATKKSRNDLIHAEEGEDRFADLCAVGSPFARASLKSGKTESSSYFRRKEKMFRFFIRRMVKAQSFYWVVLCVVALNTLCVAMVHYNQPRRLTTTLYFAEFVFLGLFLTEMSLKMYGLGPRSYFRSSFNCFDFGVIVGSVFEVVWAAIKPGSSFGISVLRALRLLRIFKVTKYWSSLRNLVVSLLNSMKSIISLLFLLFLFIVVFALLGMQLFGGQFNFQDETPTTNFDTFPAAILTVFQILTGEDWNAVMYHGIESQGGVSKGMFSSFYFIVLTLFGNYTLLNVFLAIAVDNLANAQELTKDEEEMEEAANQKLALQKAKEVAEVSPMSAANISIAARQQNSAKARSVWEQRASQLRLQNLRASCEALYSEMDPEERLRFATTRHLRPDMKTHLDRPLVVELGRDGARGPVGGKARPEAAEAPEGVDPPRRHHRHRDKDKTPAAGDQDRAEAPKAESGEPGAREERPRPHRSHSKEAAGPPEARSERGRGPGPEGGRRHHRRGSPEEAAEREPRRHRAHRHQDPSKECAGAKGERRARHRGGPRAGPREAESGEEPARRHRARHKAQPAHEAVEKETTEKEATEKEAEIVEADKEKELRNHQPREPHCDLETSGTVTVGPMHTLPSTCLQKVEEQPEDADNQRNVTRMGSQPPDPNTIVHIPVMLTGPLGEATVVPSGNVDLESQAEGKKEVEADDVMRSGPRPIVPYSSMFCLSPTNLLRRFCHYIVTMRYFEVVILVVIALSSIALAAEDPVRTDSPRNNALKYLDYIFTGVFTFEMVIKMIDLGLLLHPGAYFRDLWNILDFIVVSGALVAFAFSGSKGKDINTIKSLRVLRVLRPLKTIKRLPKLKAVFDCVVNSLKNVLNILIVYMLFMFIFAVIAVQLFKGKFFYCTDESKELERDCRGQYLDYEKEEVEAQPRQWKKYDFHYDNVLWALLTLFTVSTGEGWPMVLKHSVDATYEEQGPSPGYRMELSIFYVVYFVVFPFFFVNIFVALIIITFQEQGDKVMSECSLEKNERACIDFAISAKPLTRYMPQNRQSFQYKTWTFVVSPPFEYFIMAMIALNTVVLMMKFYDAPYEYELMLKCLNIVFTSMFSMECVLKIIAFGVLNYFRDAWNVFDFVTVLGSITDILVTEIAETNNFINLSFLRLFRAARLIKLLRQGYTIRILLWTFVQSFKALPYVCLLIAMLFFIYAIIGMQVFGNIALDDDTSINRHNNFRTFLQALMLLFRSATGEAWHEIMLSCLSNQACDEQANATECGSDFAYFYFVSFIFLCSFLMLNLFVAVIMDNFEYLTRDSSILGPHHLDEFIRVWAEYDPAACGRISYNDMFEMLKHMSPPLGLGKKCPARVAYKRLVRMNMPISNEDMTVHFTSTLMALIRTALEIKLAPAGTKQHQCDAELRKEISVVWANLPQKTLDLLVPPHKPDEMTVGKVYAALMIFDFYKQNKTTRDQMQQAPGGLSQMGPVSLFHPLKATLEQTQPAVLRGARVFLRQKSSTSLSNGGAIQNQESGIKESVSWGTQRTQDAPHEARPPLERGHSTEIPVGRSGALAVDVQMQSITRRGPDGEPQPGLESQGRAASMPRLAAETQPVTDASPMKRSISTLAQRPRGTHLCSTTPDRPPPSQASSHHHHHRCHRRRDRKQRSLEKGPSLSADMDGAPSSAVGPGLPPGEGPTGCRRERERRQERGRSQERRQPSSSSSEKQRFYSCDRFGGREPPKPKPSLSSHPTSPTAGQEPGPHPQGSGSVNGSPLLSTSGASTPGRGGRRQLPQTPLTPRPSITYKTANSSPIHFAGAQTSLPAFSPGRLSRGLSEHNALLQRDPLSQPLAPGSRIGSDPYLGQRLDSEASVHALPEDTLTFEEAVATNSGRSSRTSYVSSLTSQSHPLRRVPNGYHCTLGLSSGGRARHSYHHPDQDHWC

Compound | EC50 (CaV2.2 [1]) [µM] | LogEC50 (CaV2.2 [2]) | IC50 (CaV2.2 [1]) [µM]
CCCC[C@@H]1NC(=O)[C@H](CC(C)C)NC(=O)[C@H](CCCNC(=N)N)NC(=O)[C@H](CO)NC(=O)[C@@H]2CSSC[C@@H]3NC(=O)[C@H](CO)NC(=O)CNC(=O)[C@H]([C@@H](C)O)NC(=O)[C@H](CSSC[C@H](NC(=O)[C@H](C)NC(=O)CNC(=O)CN)C(=O)N[C@@H](CCCCN)C(=O)NCC(=O)N[C@@H](CCCCN)C(=O)NCC(=O)N[C@@H](C)C(=O)N[C@@H](CCCCN)C(=O)N2)NC(=O)[C@H](CSSC[C@@H](C(=O)N[C@@H](C)C(=O)NCC(=O)N[C@@H](CC(N)=O)C(=O)NCC(=O)N[C@@H](CC(C)C)C(=O)O)NC(=O)[C@H](CCCCN)NC(=O)CNC(=O)[C@H](CO)NC(=O)[C@H](CCCNC(=N)N)NC3=O)NC(=O)[C@H](CC(=O)O)NC(=O)[C@H](Cc2ccc(O)cc2)NC1=O [M-6] | 0.0678 | -7.2 | 
CCCC[C@@H]1NC(=O)[C@H](CC(C)C)NC(=O)[C@H](CCCNC(=N)N)NC(=O)[C@H](CO)NC(=O)[C@@H]2CSSC[C@@H]3NC(=O)[C@H](CO)NC(=O)CNC(=O)[C@H]([C@@H](C)O)NC(=O)[C@H](CSSC[C@H](NC(=O)[C@H](C)NC(=O)[C@H](C)NC(=O)CNC(=O)CN)C(=O)N[C@@H](CCCCN)C(=O)NCC(=O)N[C@@H](CCCCN)C(=O)NCC(=O)N[C@@H](C)C(=O)N[C@@H](CCCCN)C(=O)N2)NC(=O)[C@H](CSSC[C@@H](C(=O)N[C@@H](C)C(=O)NCC(=O)N[C@@H](CC(N)=O)C(=O)NCC(=O)N[C@@H](CC(C)C)C(=O)O)NC(=O)[C@H](CCCCN)NC(=O)CNC(=O)[C@H](CO)NC(=O)[C@H](CCCNC(=N)N)NC3=O)NC(=O)[C@H](CC(=O)O)NC(=O)[C@H](Cc2ccc(O)cc2)NC1=O [M-7] | 0.0555 | -7.3 | 
CCCC[C@@H]1NC(=O)[C@H](CC(C)C)NC(=O)[C@H](CCCNC(=N)N)NC(=O)[C@H](CO)NC(=O)[C@@H]2CSSC[C@@H]3NC(=O)[C@H](CO)NC(=O)CNC(=O)[C@H]([C@@H](C)O)NC(=O)[C@H](CSSC[C@H](NC(=O)[C@H](C)NC(=O)[C@H](C)NC(=O)CNC(=O)CN)C(=O)N[C@@H](CCCCN)C(=O)NCC(=O)N[C@@H](CCCCN)C(=O)NCC(=O)N[C@@H](C)C(=O)N[C@@H](CCCCN)C(=O)N2)NC(=O)[C@H](CSSC[C@@H](C(=O)N[C@@H](C)C(=O)NCC(=O)NCC(=O)N[C@@H](CC(N)=O)C(=O)NCC(=O)N[C@@H](CC(C)C)C(=O)O)NC(=O)[C@H](CCCCN)NC(=O)CNC(=O)[C@H](CO)NC(=O)[C@H](CCCNC(=N)N)NC3=O)NC(=O)[C@H](CC(=O)O)NC(=O)[C@H](Cc2ccc(O)cc2)NC1=O [M-8] | 0.0787 | -7.1 | 
CCCC[C@@H]1NC(=O)[C@H](CC(C)C)NC(=O)[C@H](CCCNC(=N)N)NC(=O)[C@H](CO)NC(=O)[C@@H]2CSSC[C@@H]3NC(=O)[C@H](CO)NC(=O)CNC(=O)[C@H]([C@@H](C)O)NC(=O)[C@H](CSSC[C@H](NC(=O)[C@H](C)NC(=O)[C@H](C)NC(=O)CNC(=O)CN)C(=O)N[C@@H](CCCCN)C(=O)NCC(=O)N[C@@H](CCCCN)C(=O)NCC(=O)N[C@@H](C)C(=O)N[C@@H](CCCCN)C(=O)N2)NC(=O)[C@H](CSSC[C@@H](C(=O)N[C@@H](C)C(=O)N[C@@H](C)C(=O)NCC(=O)NCC(=O)N[C@@H](CC(N)=O)C(=O)NCC(=O)N[C@@H](CC(C)C)C(=O)O)NC(=O)[C@H](CCCCN)NC(=O)CNC(=O)[C@H](CO)NC(=O)[C@H](CCCNC(=N)N)NC3=O)NC(=O)[C@H](CC(=O)O)NC(=O)[C@H](Cc2ccc(O)cc2)NC1=O [M-9] | 0.0319 | -7.5 | 0.0319 ± 0.0026

From PMC10952433, “A Chemoenzymatic Approach To Produce a Cyclic Analogue of the Analgesic Drug MVIIA (Ziconotide)” (Angewandte Chemie (International Ed. in English), 2023)
